The text below walks through data of patent publication US20020040062A1, “Protein kinase C activators and their use in decreasing expression of cell antigens” (The Trustees of Columbia University, priority 1993, published 2002).

Read-outs that look alike come from different tables or passages of the source. Marks after values point to notes of the source that are not given here.

The subject of experiment [1] is HLA Class I. Briefly: Northern blotting, steady-state HLA Class I mRNA in T47D cells. The conditions noted are these: 72 hr; for increase in HLA class I antigen mRNA levels: 500 units/ml IFN-α or IFN-β, 50 units/ml IFN-γ, 0.1 μg/ml TPA or MEZ, densitometry. Type of experiment: cell-based, human. The procedure: (§1) FIG. 3: Effect of interferon, ADMB, TPA and MEZ, alone and in combination with H-7, on steady-state mRNA levels of HLA Class I antigens, HLA Class II-DRβ antigen, c-erbB-2, ICAM-1 and GAPDH in T47D human breast carcinoma cells. […] Cultures were also grown in the presence of 0.1 μg/ml of H-7 for 72 hr with and without the additional compounds indicated above. Total cytoplasmic RNA was isolated and processed as described in “Detailed Description Of The Invention.” Control: CON; recombinant human leukocyte interferon-A: IFN-αA; recombinant human fibroblast interferon: IFN-β; recombinant human immune interferon: IFN-γ; ADMB; 3-(N-acetylamino)-5-(N-decyl-N-methylamino)-benzyl alcohol; TPA; 12-0-tetradecanoyl-phorbol-13-acetate; MEZ; mezerein; H-7: (1-(5-isoquinolinesulfonyl)-2-methylpiperazine dihydrochloride.
(§2) Steady-state levels of HLA Class I, HLA Class II-DRβ, c-erbB-2 and ICAM-I mRNA in control and treated T47D cells were determined by Northern blotting analysis of total cytoplasmic RNA probed with appropriate ^32P-labeled gene probes as previously described. Northern blots were also probed with a ^32P-labeled glyceraldehyde phosphate dehydrogenase (GAPDH) gene probe to verify equal […] under various experimental conditions. Following hybridization, the filters were washed and exposed for autoradiography.

In experiment [2] the test system is CA19.9. Briefly: FACS analysis of CA19.9 (MoAb B67.4) in WiDr human colon carcinoma cells. The experiment is classed as cell-based. The procedure: (§3) Cells were plated in 10 cm plates, media was changed 24 hours later with no addition (control) or addition of the indicated compounds and cells were incubated at 37° C. for the indicated time (72 or 96 hours). Cells were resuspended using 10× EDTA and antigen expression was determined as described (Leon, Mesa-Tejada, Gutierrez, Estabrook, Greiner, Schlom & Fisher: Anticancer Res. 9:1639-1648, 1989; Leon, Gutierrez, Jiang, Estabrook, Waxman & Fisher: Cancer Immunol. Immmunother. 35:315-324, 1992).
Background: Flow cytometry measures light scatter and fluorescence of single cells or particles in a stream.

The subject of experiment [3] is T47D cells. Nature of the experiment: T47D cell growth assay (Coulter Counter). The conditions noted are these: for effect on 72 hr growth: 0.1 μg/ml, FIG. 1. Type of experiment: cell-based, human. The method, then: (§4) FIG. 1: Effect of H-7, TPA, MEZ and ADMB on T47D cell growth and DNA synthesis. Cell growth assays are presented in (A). T47D cells were seeded at 1×10^4 cells/35 mm tissue culture plate, the medium was changed with the indicated compounds 24 hr later and cell numbers were determined after an additional 72 hr growth at 37° C. by Coulter Counter. Results are the average of triplicate samples/experimental condition which varied by ≦10%. DNA synthesis assays are presented in (B). T47 D cells were seeded at 1.25×10^4 cells in 0.2 ml of media in 96 microtiter plates. Every 24 hr, cultures received 1 μCi of methyl-^3H-thymidine and 8 hr later cells were harvested and TCA precipitable counts were determined. Results are the average from replicate samples exposed to the indicated compounds for 72 hr. Replicate samples varied by ≦10% and replicate studies varied by ≦15%. Further details can be found in “Detailed Description Of The Invention”.
(§5) T47D cells were seeded at 5×10^3 cells/ml in 35 mm tissue culture plates and 24 hr later the medium was changed with the indicated compounds. Seventy-two hr later the cells were resuspended in trysin/versene (0.125%/0.02%, w/w) and counted using a ZM Coulter Counter (Coulter Electronics). For ^3H-thymidine incorporation studies, T47D cells were seeded at 1.25×10^4 cells in 0.2 ml of media in 96 well microtiter plates. Every 24 hr, plates received 1 μCi of methyl-^3H-thymidine (specific activity […]) (ICN Radiochemicals, Irvine, Calif.), cells were harvested 8 hr after the addition of labeled thymidine and TCA precipitable counts were determined using a Packard scintillation counter. Replicate samples varied by ≦10% and replicate studies varied by ≦15%.

For experiment [4], the system named is T47D cells. Briefly: 3H-thymidine incorporation (DNA synthesis) in T47D cells. Type of experiment: cell-based, human. The conditions noted are these: 0.1 μg/ml, 72 hr, FIG. 1. The procedure:
as §4, §5

For experiment [5], the system named is HLA-DR. Briefly: FACS analysis of HLA-DR (MoAb L243) in WiDr human colon carcinoma cells. Type of experiment: cell-based. The procedure: as §3
The subject of experiment [6] is HLA Class II-DRβ antigen mRNA. Nature of the experiment: Northern blotting, steady-state HLA Class II-DRβ mRNA in T47D cells. Type of experiment: cell-based, human. The conditions noted are these: 72 hr, 500 units/ml IFN-α or IFN-β, 50 units/ml IFN-γ, 0.1 μg/ml TPA, MEZ or ADMB, densitometry. The procedure: as §1, §2
For experiment [7], the system named is HLA-DR. Briefly: FACS analysis of HLA-DR (MoAb L243) in CBS human colon carcinoma cells. Type of experiment: cell-based. The conditions noted are these: 96 hours. The procedure:
Cells were plated in 10 cm plates, media was changed 24 hours later with no addition (control) or addition of the indicated compounds and cells were incubated at 37° C. for 96 hours. Cells were resuspended using 10× EDTA and antigen expression was determined as described (Leon, Mesa-Tejada, Gutierrez, Estabrook, Breiner, Schlom & Fisher: Anticancer Res. 9:1639-1648, 1989; Leon, Gutierrez, Jiang, Estabrook, Waxman & Fisher: Cancer Immuno. Immunother. 35:315-324 1992).

[8] abbreviates: 72 Hour Treatment, MEZ 100 ng/ml, IFN-γ 100 U/ml.
The mark [9] stands for this setting: 96 Hour Treatment, MEZ 100 ng/ml, IFN-γ 100 U/ml.
The mark [10] stands for this setting: 72 Hour Treatment, ADMB 0.01 μg/ml.
[11] abbreviates: 72 Hour Treatment, ADMB 0.1 μg/ml.
Setting [12] is: 72 Hour Treatment, ADMB 1.0 μg/ml.
[13] abbreviates: 96 Hour Treatment, ADMB 0.01 μg/ml.
[14] abbreviates: 96 Hour Treatment, ADMB 0.1 μg/ml.
Setting [15] is: 96 Hour Treatment, ADMB 1.0 μg/ml.

Take `CC1CNCCN1S(=O)(=O)c1cccc2cnccc12.Cl.Cl` (stereo not drawn) [H-7, 1-(5-isoquinolinesulfonyl)-2-methylpiperazine dihydrochloride]: the “alteration of HLA class I mRNA levels by H-7” value in experiment [1] (0.1 μg/ml H-7) is listed as at most 1.2 fold.
`C=C(C)[C@@]12O[C@@]3(c4ccccc4)O[C@@H]1[C@@H]1[C@@H]4O[C@]4(CO)[C@@H](O)[C@]4(O)C(=O)C(C)=C[C@H]4[C@@]1(O3)[C@H](C)[C@H]2OC(=O)/C=C/C=C/c1ccccc1` [MEZ, mezerein]: the “Monoclonal Antibody Binding (MFI) MoAb B67.4 (CA19.9)” value in experiment [2] (setting [8]) is 1914* MFI; in experiment [2] (setting [9]), 4784* MFI. Also, the “effect on 72 hr growth” value in experiment [3] (T47D cells) is “only marginally altered”. In addition, in experiment [3] (T47D cells, in combination with 0.1 μg/ml of H-7, data not shown), the “72 hr growth suppression in combination with H-7” value is “No additive or synergistic effect”. In addition, the “effect on DNA synthesis (3H-thymidine incorporation)” value (shortened to “effect on DNA synthesis”) in experiment [4] is recorded as “only marginally altered”. Also, the “Monoclonal Antibody Binding (MFI) MoAb L243 (HLA-DR)” value is listed as 1120* MFI in experiment [5] (setting [8]); 2129* MFI in experiment [5] (setting [9]); 9726* MFI in experiment [7] (MEZ 1100 ng/ml, IFN-γ 100 U/ml). Moreover, in experiment [1], the “increase in HLA class I antigen mRNA levels” value came out at 1.75 fold. Moreover, the “increase in HLA Class II-DR antigen mRNA levels” value in experiment [6] came out at 1.2 fold.
`CCCCCCCCCCCCCC(=O)O[C@@H]1[C@@H](C)[C@@]2(O)[C@@H](C=C(CO)C[C@]3(O)C(=O)C(C)=C[C@@H]23)[C@H]2C(C)(C)[C@]12OC(C)=O` [TPA, 12-0-tetradecanoyl-phorbol-13-acetate]: the “72 hr growth suppression in combination with H-7” value in experiment [3] was “No additive or synergistic effect”. The “effect on 72 hr growth” value in experiment [3] (T47D cells) is reported as “suppressed to the greatest degree”. Besides, in experiment [4], the “effect on DNA synthesis” value was “suppressed to the greatest degree”. Moreover, in experiment [1], the “increase in HLA class I antigen mRNA levels” value is 1.3 fold. In experiment [6], the “increase in HLA Class II-DR antigen mRNA levels” value is “did not increase”.
`CCCCCCCCCCN(C)c1cc(CO)cc(NC(C)=O)c1` [ADMB, 3-(N-acetylamino)-5-(N-decyl-N-methylamino)-benzyl alcohol]: the “Monoclonal Antibody Binding (MFI) MoAb B67.4 (CA19.9)” value in experiment [2] (setting [10]) is listed as 1136 MFI; in experiment [2] (setting [11]) it was 1172 MFI; in experiment [2] (setting [12]), 1400* MFI; in experiment [2] (setting [13]) it was 1512 MFI; in experiment [2] (setting [14]), 2028* MFI; in experiment [2] (setting [15]) it was 2417* MFI. Further, in experiment [3] (T47D cells), the “effect on 72 hr growth” value is reported as “only marginally altered”. Besides, the “effect on DNA synthesis” value in experiment [4] is reported as “only marginally altered”. Further, the “Monoclonal Antibody Binding (MFI) MoAb L243 (HLA-DR)” value was 390 MFI in experiment [5] (setting [10]); 317 MFI in experiment [5] (setting [11]); 486* MFI in experiment [5] (setting [12]); 434 MFI in experiment [5] (setting [13]); 615* MFI in experiment [5] (setting [14]); 806* MFI in experiment [5] (setting [15]). Moreover, the “Monoclonal Antibody Binding (MFI) MoAb L243 (HLA-DR)” value was 4112 MFI in experiment [7] (ADMB 0.01 μg/ml), 3328 MFI in experiment [7] (ADMB 0.1 μg/ml) and 6870* MFI in experiment [7] (ADMB 1.0). In addition, the “increase in HLA Class II-DR antigen mRNA levels” value in experiment [6] was “did not increase”.

B1: IFN-γ: recombinant human immune interferon produced in Escherichia coli (protein, UniProt P01579 24-161, looked up)
Interferon gamma: QDPYVKEAENLKKYFNAGHSDVADNGTLFLGILKNWKEESDRKIMQSQIVSFYFKLFKNFKDDQSIQKSVETIKEDMNVKFFNSNKKKRDDFEKLTNYSVTDLNVQRKAIHELIQVMAELSPAAKTGKRKRSQMLFRG
For B1, the “Monoclonal Antibody Binding (MFI) MoAb B67.4 (CA19.9)” value in experiment [2] (setting [8]) is listed as 2271* MFI; in experiment [2] (setting [9]), 3191* MFI. Moreover, the results for the “activity in increasing Class II HLA-DR antigens relative to ADMB” value in experiment [5] and in experiment [7] were “approximately 3 ×” and “approximately 2 ×”, respectively. Moreover, the “Monoclonal Antibody Binding (MFI) MoAb L243 (HLA-DR)” value was 1724* MFI in experiment [5] (setting [8]); 2376* MFI in experiment [5] (setting [9]); 14972* MFI in experiment [7] (MEZ 1100 ng/ml, IFN-γ 100 U/ml). Moreover, in experiment [1], the “increase in HLA class I antigen mRNA levels” value was determined as 1.8 fold. In experiment [6], the “increase in HLA Class II-DR antigen mRNA levels” value is reported as 1.25 fold.

B2: IFN-β: recombinant human fibroblast interferon with a serine substituted for a cysteine at position 17 (protein, UniProt P01574 22-187, looked up, variant C17S)
Interferon beta: MSYNLLGFLQRSSNFQSQKLLWQLNGRLEYCLKDRMNFDIPEEIKQLQQFQKEDAALTIYEMLQNIFAIFRQDSSSTGWNETIVENLLANVYHQINHLKTVLEEKLEKEDFTRGKLMSSLHLKRYYGRILHYLKAKEYSHCAWTIVRVEILRNFYFINRLTGYLRN
For B2, the “increase in HLA class I antigen mRNA levels” value in experiment [1] was found to be 2.1 fold. The “increase in HLA Class II-DR antigen mRNA levels” value in experiment [6] is listed as 1.2 fold.
